Like-named read-outs stand apart in the source and are kept apart here. Bounds are passed on as bounds.

Here are results for 11 compounds from patent US11771738B2 (Zoetis Services LLC, priority 2018, dated 2023).

Common to all, as to assay type: cell-based
Assay [1] relates to microfilariae of Dirofilaria immitis. In words: Dirofilaria immitis, Microfilaria (DiMf) In Vitro Assay. To be noted: Dirofilaria immitis, 72 h, read-out: DiMf MED, Minimum Effective Dose, D. immitis microfilariae motility, in vitro.
For a further assay, the system named is D. immitis L4 larvae. In words: Dirofilaria immitis, L4 Stage (DiL4) In Vitro Assay. The conditions noted are these: for minimal effective concentration: Dirofilaria immitis, 72 h, read-out: DiL4 MED, Minimum Effective Dose, D. immitis L4 larvae motility, in vitro; for DiMf/DiL4: larval stage selectivity, ratio of DiMf MED to DiL4 MED.
The test system of assay [2] is third stage larvae of Haemonchus contortus. In words: Haemonchus contortus, Larvae Stage 3 (HcL3) In Vitro Assay. The conditions noted are these: Haemonchus contortus, 96 h.
Where [3] appears, read: read-out: HcL3 MED, Minimum Effective Dose, H. contortus third stage larvae, approximately 96 hours.
[4] abbreviates: read-out: HcL3 MED, Haemonchus contortus third stage larvae in vitro, class mark appended to the Ex # in Table 3.
The mark [5] stands for this setting: read-out: HcL3 MED, approximately 96 hours incubation, multiple-resistant field isolate.

As for `CC(C)C[C@H]1C(=O)O[C@H](Cc2ccc(Cc3cnsc3)cc2)C(=O)N(C)[C@@H](CC(C)C)C(=O)O[C@H](C)C(=O)N(C)[C@@H](CC(C)C)C(=O)O[C@H](Cc2ccc(Cc3cnsc3)cc2)C(=O)N(C)[C@@H](CC(C)C)C(=O)O[C@H](C)C(=O)N1C` [Example 3-254, (3S,6R,9S,12R,15S,18R,21S,24R)-3,9,15,21-tetraisobutyl-6,18-bis(4-(isothiazol-4-ylmethyl)benzyl)-4,10,12,16,22,24-hexamethyl-1,7,13,19-tetraoxa-4,10,16,22-tetraazacyclotetracosan-2,5,8,11,14,17,20,23-octaone], the minimal effective concentration turned out to be 0.003 µM in assay [1], 0.001 µM in the assay on D. immitis L4 larvae and 10 µM in assay [2] (setting [3]). Also, the DiMf/DiL4 in the assay with D. immitis L4 larvae stood at 3.

For the compound `COC(c1ccc(C[C@H]2OC(=O)[C@H](CC(C)C)N(C)C(=O)[C@@H](C)OC(=O)[C@H](CC(C)C)N(C)C(=O)[C@@H](Cc3ccc(C(OC)c4ccc(O)nc4)cc3)OC(=O)[C@H](CC(C)C)N(C)C(=O)[C@@H](C)OC(=O)[C@H](CC(C)C)N(C)C2=O)cc1)c1ccc(O)nc1` (stereo partly drawn) [Example 3-259, (3S,6R,9S,12R,15S,18R,21S,24R)-6,18-bis(4-((6-hydroxypyridin-3-yl)(methoxy)methyl)benzyl)-3,9,15,21-tetraisobutyl-4,10,12,16,22,24-hexamethyl-1,7,13,19-tetraoxa-4,10,16,22-tetraazacyclotetracosan-2,5,8,11,14,17,20,23-octaone], the minimal effective concentration was 0.01 µM in assay [1], 0.0005 µM in the assay on D. immitis L4 larvae, 1 to 3.3 µM in assay [2] (setting [4]) and 3.3 µM in assay [2] (setting [3]). Also, the DiMf/DiL4 in the assay with D. immitis L4 larvae turned out to be 20.

Take `COc1ncccc1C(C)c1ccc(C[C@H]2OC(=O)[C@H](CC(C)C)N(C)C(=O)[C@@H](C)OC(=O)[C@H](CC(C)C)N(C)C(=O)[C@@H](Cc3ccc(C(C)c4cccnc4OC)cc3)OC(=O)[C@H](CC(C)C)N(C)C(=O)[C@@H](C)OC(=O)[C@H](CC(C)C)N(C)C2=O)cc1` (stereo partly drawn) [Example 3-261, (3S,6R,9S,12R,15S,18R,21S,24R)-3,9,15,21-tetraisobutyl-6,18-bis(4-(1-(2-methoxypyridin-3-yl)ethyl)benzyl)-4,10,12,16,22,24-hexamethyl-1,7,13,19-tetraoxa-4,10,16,22-tetraazacyclotetracosan-2,5,8,11,14,17,20,23-octaone]: the minimal effective concentration was 0.03 µM in assay [1], < 0.0001 µM in the assay on D. immitis L4 larvae and > 100 µM in assay [2] (setting [3]). Further, the DiMf/DiL4 with D. immitis L4 larvae is >300.

`CC(C)C[C@H]1C(=O)O[C@H](Cc2ccc(Cc3ccnn3C3CC3)cc2)C(=O)N(C)[C@@H](CC(C)C)C(=O)O[C@H](C)C(=O)N(C)[C@@H](CC(C)C)C(=O)O[C@H](Cc2ccc(Cc3ccnn3C3CC3)cc2)C(=O)N(C)[C@@H](CC(C)C)C(=O)O[C@H](C)C(=O)N1C` [Example 3-268, (3S,6R,9S,12R,15S,18R,21S,24R)-6,18-bis(4-((1-cyclopropyl-1H-pyrazol-5-yl)methyl)benzyl)-3,9,15,21-tetraisobutyl-4,10,12,16,22,24-hexamethyl-1,7,13,19-tetraoxa-4,10,16,22-tetraazacyclotetracosan-2,5,8,11,14,17,20,23-octaone]: the minimal effective concentration in assay [1] was 0.002 µM; in the assay with D. immitis L4 larvae it was 0.0005 µM; in assay [2] (setting [4]), < 1 µM; in assay [2] (setting [3]), 1 µM; in assay [2] (setting [5]) it was ≤ 1 µM. In addition, in the assay on D. immitis L4 larvae, the DiMf/DiL4 is 4.

Turning to `Cc1ncccc1Cc1ccc(C[C@@H]2OC(=O)[C@H](CC(C)C)N(C)C(=O)[C@@H](C)OC(=O)[C@@H](CC(C)C)N(C)C(=O)[C@@H](Cc3ccc(Cc4cccnc4C)cc3)OC(=O)[C@@H](CC(C)C)N(C)C(=O)[C@@H](C)OC(=O)[C@H](CC(C)C)N(C)C2=O)cc1` [Example 3-273, (3S,6R,9R,12R,15R,18R,21S,24S)-3,9,15,21-tetraisobutyl-4,6,10,16,18,22-hexamethyl-12,24-bis[[4-[(2-methyl-3-pyridyl)methyl]phenyl]methyl]-1,7,13,19-tetraoxa-4,10,16,22-tetrazacyclotetracosane-2,5,8,11,14,17,20,23-octaone], the minimal effective concentration in assay [1] was 0.002 µM; with D. immitis L4 larvae it was 0.0003 µM; in assay [2] (setting [4]), < 1 µM; in assay [2] (setting [3]), 1 µM; in assay [2] (setting [5]), ≤ 1 µM. Moreover, the DiMf/DiL4 with D. immitis L4 larvae is listed as 6.7.

`CC(C)C[C@H]1C(=O)O[C@H](Cc2ccc(Cc3ccnn3CC3CC3)cc2)C(=O)N(C)[C@@H](CC(C)C)C(=O)O[C@H](C)C(=O)N(C)[C@@H](CC(C)C)C(=O)O[C@H](Cc2ccc(Cc3ccnn3CC3CC3)cc2)C(=O)N(C)[C@@H](CC(C)C)C(=O)O[C@H](C)C(=O)N1C` [Example 3-275, (3S,6R,9S,12R,15S,18R,21S,24R)-6,18-bis(4-((1-(cyclopropylmethyl)-1H-pyrazol-5-yl)methyl)benzyl)-3,9,15,21-tetraisobutyl-4,10,12,16,22,24-hexamethyl-1,7,13,19-tetraoxa-4,10,16,22-tetraazacyclotetracosan-2,5,8,11,14,17,20,23-octaone]: the minimal effective concentration in assay [1] is 0.01 µM; in the assay on D. immitis L4 larvae it was 0.001 µM; in assay [2] (setting [4]) it was 1 to 3.3 µM; in assay [2] (setting [3]), 1.8 µM. For the same compound, the DiMf/DiL4 in the assay with D. immitis L4 larvae worked out at 10.

On to `COc1ccncc1Cc1ccc(C[C@H]2OC(=O)[C@H](CC(C)C)N(C)C(=O)[C@@H](C)OC(=O)[C@H](CC(C)C)N(C)C(=O)[C@@H](Cc3ccc(Cc4cnccc4OC)cc3)OC(=O)[C@H](CC(C)C)N(C)C(=O)[C@@H](C)OC(=O)[C@H](CC(C)C)N(C)C2=O)cc1` [Example 3-282, (3S,6R,9S,12R,15S,18R,21S,24R)-3,9,15,21-tetraisobutyl-6,18-bis(4-((4-methoxypyridin-3-yl)methyl)benzyl)-4,10,12,16,22,24-hexamethyl-1,7,13,19-tetraoxa-4,10,16,22-tetraazacyclotetracosan-2,5,8,11,14,17,20,23-octaone], for which the figures for the minimal effective concentration (in assay [1]; with D. immitis L4 larvae; in assay [2] (setting [3])) were 0.005 µM, 0.001 µM and 30 µM, respectively. Moreover, the DiMf/DiL4 with D. immitis L4 larvae is recorded as 5.

For the compound `CC(C)C[C@H]1C(=O)O[C@H](Cc2ccc(Cc3cncnc3C(C)C)cc2)C(=O)N(C)[C@@H](CC(C)C)C(=O)O[C@H](C)C(=O)N(C)[C@@H](CC(C)C)C(=O)O[C@H](Cc2ccc(Cc3cncnc3C(C)C)cc2)C(=O)N(C)[C@@H](CC(C)C)C(=O)O[C@H](C)C(=O)N1C` [Example 3-283, (3S,6R,9S,12R,15S,18R,21S,24R)-3,9,15,21-tetraisobutyl-6,18-bis(4-((4-isopropylpyrimidin-5-yl)methyl)benzyl)-4,10,12,16,22,24-hexamethyl-1,7,13,19-tetraoxa-4,10,16,22-tetraazacyclotetracosan-2,5,8,11,14,17,20,23-octaone], the minimal effective concentration in assay [1] was 0.003 µM; in the assay with D. immitis L4 larvae, 0.0005 µM; in assay [2] (setting [4]), < 1 µM; in assay [2] (setting [3]) it was 1 µM; in assay [2] (setting [5]) it was ≤ 1 µM. Further, the DiMf/DiL4 in the assay on D. immitis L4 larvae is 6.

For the compound `CC(C)C[C@H]1C(=O)O[C@H](Cc2ccc(Cc3cc(C4CC4)no3)cc2)C(=O)N(C)[C@@H](CC(C)C)C(=O)O[C@H](C)C(=O)N(C)[C@@H](CC(C)C)C(=O)O[C@H](Cc2ccc(Cc3cc(C4CC4)no3)cc2)C(=O)N(C)[C@@H](CC(C)C)C(=O)O[C@H](C)C(=O)N1C` [Example 3-284, (3S,6R,9S,12R,15S,18R,21S,24R)-6,18-bis(4-((3-cyclopropylisoxazol-5-yl)methyl)benzyl)-3,9,15,21-tetraisobutyl-4,10,12,16,22,24-hexamethyl-1,7,13,19-tetraoxa-4,10,16,22-tetraazacyclotetracosan-2,5,8,11,14,17,20,23-octaone], the values for the minimal effective concentration (in assay [1]; in the assay on D. immitis L4 larvae; in assay [2] (setting [3])) were 0.1 µM, 0.0005 µM and > 10 µM, respectively. Moreover, the DiMf/DiL4 in the assay with D. immitis L4 larvae worked out at 200.

Consider `CC(C)C[C@H]1C(=O)O[C@H](Cc2ccc([C@H](F)c3nccs3)cc2)C(=O)N(C)[C@@H](CC(C)C)C(=O)O[C@H](C)C(=O)N(C)[C@@H](CC(C)C)C(=O)O[C@H](Cc2ccc([C@@H](F)c3nccs3)cc2)C(=O)N(C)[C@@H](CC(C)C)C(=O)O[C@H](C)C(=O)N1C` [Example 3-285, (3S,6R,9S,12R,15S,18R,21S,24R)-6-(4-((R)-fluoro(thiazol-2-yl)methyl)benzyl)-18-(4-((S)-fluoro(thiazol-2-yl)methyl)benzyl)-3,9,15,21-tetraisobutyl-4,10,12,16,22,24-hexamethyl-1,7,13,19-tetraoxa-4,10,16,22-tetraazacyclotetracosan-2,5,8,11,14,17,20,23-octaone], for which the minimal effective concentration in assay [1] came out at 0.003 µM; with D. immitis L4 larvae, 0.0005 µM; in assay [2] (setting [3]) it was 5.7 µM. The DiMf/DiL4 with D. immitis L4 larvae turned out to be 6.

On to `CC(C)C[C@H]1C(=O)O[C@H](Cc2ccc(Cc3cnn(CCF)c3)cc2)C(=O)N(C)[C@@H](CC(C)C)C(=O)O[C@H](C)C(=O)N(C)[C@@H](CC(C)C)C(=O)O[C@H](Cc2ccc(Cc3cnn(CCF)c3)cc2)C(=O)N(C)[C@@H](CC(C)C)C(=O)O[C@H](C)C(=O)N1C` [Example 3-286, (3S,6R,9S,12R,15S,18R,21S,24R)-6,18-bis(4-((1-(2-fluoroethyl)-1H-pyrazol-4-yl)methyl)benzyl)-3,9,15,21-tetraisobutyl-4,10,12,16,22,24-hexamethyl-1,7,13,19-tetraoxa-4,10,16,22-tetraazacyclotetracosan-2,5,8,11,14,17,20,23-octaone], for which the figures for the minimal effective concentration (in assay [1]; in the assay with D. immitis L4 larvae; in assay [2] (setting [3])) were 0.03 µM, 0.0005 µM and > 10 µM, respectively. In addition, the DiMf/DiL4 in the assay on D. immitis L4 larvae amounted to 60.
